In ChEMBL document CHEMBL2040771, “Discovery of a potent inhibitor of anaplastic lymphoma kinase with in vivo antitumor activity” (ACS Med Chem Lett, 2010):
Activity calls are given as the source filed them. The calls are words filed in the database; no cut-off is given here.

Columns and labels:
[1] = tested on: Epidermal growth factor receptor (Homo sapiens), P00533 [L861Q]; test: Inhibition of EGFR L861Q mutant at 0.1 uM; assay type: protein assay
[2] = tested on: Receptor-type tyrosine-protein kinase FLT3 (Homo sapiens), P36888 [D835Y]; test: Inhibition of FLT3 D835Y mutant at 0.1 uM
[3] = biological target: Vascular endothelial growth factor receptor 3 (Homo sapiens) (UniProt P35916); test: Inhibition of FLT4 at 0.1 uM
[4] = biological target: Leukocyte tyrosine kinase receptor (Homo sapiens) (UniProt P29376); test: Inhibition of LTK at 1 uM
[5] = biological target: Dual specificity mitogen-activated protein kinase kinase 4 (Homo sapiens) (UniProt P45985); test: Inhibition of MEK4 at 1 uM
[6] = Plasma clearance in beagle dog at 1 mg/kg, iv by LC/MS/MS analysis; assay type: ADME, organism-based, Canis lupus familiaris; set-up: dose 1 mg/kg, route intravenous
[7] = biological target: Mitogen-activated protein kinase kinase kinase 5 (Homo sapiens) (UniProt Q99683); test: Inhibition of ASK1 at 0.1 uM
[8] = Plasma protein binding in mouse; assay type: ADME, cell-free; conditions: read-out: PPB (converted)
[9] = biological target: Serine/threonine-protein kinase ULK3 (Homo sapiens) (UniProt Q6PHR2); test: Inhibition of ULK3 at 0.1 uM
[10] = biological target: Mitogen-activated protein kinase 9 (Homo sapiens) (UniProt P45984); test: Inhibition of JNK2 at 1 uM
[11] = Half life in SCID mouse at 10 mg/kg, po; assay type: ADME, organism-based; set-up: dose 10 mg/kg, route oral; conditions: in vivo
[12] = biological target: Dual specificity protein kinase TTK (Homo sapiens) (UniProt P33981); test: Inhibition of TTK at 1 uM
[13] = biological target: Tyrosine-protein kinase Srms (Homo sapiens) (UniProt Q9H3Y6); test: Inhibition of SRMS at 1 uM
[14] = biological target: Serine/threonine-protein kinase ULK3 (Homo sapiens) (UniProt Q6PHR2); test: Inhibition of ULK3 at 1 uM
[15] = Half life in Sprague-Dawley rat at 1 mg/kg, iv; assay type: ADME, organism-based; set-up: dose 1 mg/kg, route intravenous; conditions: in vivo
KARPAS-299 = test: Induction apoptosis in ALK-positive human KARPAS299 cells assessed as activation of caspase 3/7 by fluorometric assay; assay type: functional, cell-based
[16] = biological target: Proto-oncogene tyrosine-protein kinase ROS (Homo sapiens) (UniProt P08922); test: Inhibition of ROS at 1 uM
[17] = biological target: Platelet-derived growth factor receptor beta (Homo sapiens) (UniProt P09619); test: Inhibition of PDGFRB at 0.1 uM
[18] = Plasma clearance in Sprague-Dawley rat at 1 mg/kg, iv by LC/MS/MS analysis; assay type: ADME, organism-based; set-up: dose 1 mg/kg, route intravenous
[19] = biological target: Serine/threonine-protein kinase 32B (Homo sapiens) (UniProt Q9NY57); test: Inhibition of YANK2 at 1 uM
[20] = AUC in SCID mouse at 10 mg/kg, po; assay type: ADME, organism-based; set-up: dose 10 mg/kg, route oral; conditions: plasma
[21] = tested on: Epidermal growth factor receptor (Homo sapiens), P00533 [L858R]; test: Inhibition of EGFR L858R mutant at 0.1 uM; assay type: protein assay
[22] = biological target: Protein-tyrosine kinase 6 (Homo sapiens) (UniProt Q13882); test: Inhibition of BRK at 1 uM
[23] = Drug uptake in tumor lysates in SCID mouse xenografted with ALK-positive human SUP-M2 cells at 55 mg/kg, po bid for 12 days; assay type: ADME, organism-based, Neoplasm; set-up: dose 55 mg/kg, route oral; conditions: read-out: Drug uptake
Mus musculus = test: Toxicity in SCID mouse xenografted with human SUP-M2 cells at 30 mg/kg, po BID for 12 days; assay type: organism-based; set-up: dose 30 mg/kg, route oral; conditions: in vivo, 288 h
[24] = biological target: ALK tyrosine kinase receptor (Homo sapiens, UniProt Q9UM73); conditions: 0.1 uM
Description: Inhibition of ALK at 0.1 uM

Chain of Serine/threonine-protein kinase ULK3 (Homo sapiens) (Q6PHR2 whole entry): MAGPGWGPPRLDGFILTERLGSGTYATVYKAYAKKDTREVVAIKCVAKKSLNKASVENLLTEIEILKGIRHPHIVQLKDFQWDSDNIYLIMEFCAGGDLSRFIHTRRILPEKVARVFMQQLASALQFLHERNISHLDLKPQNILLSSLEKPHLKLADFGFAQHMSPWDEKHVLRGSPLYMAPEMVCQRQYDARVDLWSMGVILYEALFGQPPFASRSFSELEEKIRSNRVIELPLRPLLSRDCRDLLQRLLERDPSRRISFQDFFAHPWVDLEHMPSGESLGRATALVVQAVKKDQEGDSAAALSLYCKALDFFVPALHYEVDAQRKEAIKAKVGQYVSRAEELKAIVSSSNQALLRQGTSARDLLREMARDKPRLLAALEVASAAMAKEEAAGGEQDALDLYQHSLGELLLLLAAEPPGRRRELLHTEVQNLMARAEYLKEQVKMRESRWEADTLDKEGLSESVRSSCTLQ
Chain of Epidermal growth factor receptor (Homo sapiens), P00533 [L858R] (P00533 whole entry L858R): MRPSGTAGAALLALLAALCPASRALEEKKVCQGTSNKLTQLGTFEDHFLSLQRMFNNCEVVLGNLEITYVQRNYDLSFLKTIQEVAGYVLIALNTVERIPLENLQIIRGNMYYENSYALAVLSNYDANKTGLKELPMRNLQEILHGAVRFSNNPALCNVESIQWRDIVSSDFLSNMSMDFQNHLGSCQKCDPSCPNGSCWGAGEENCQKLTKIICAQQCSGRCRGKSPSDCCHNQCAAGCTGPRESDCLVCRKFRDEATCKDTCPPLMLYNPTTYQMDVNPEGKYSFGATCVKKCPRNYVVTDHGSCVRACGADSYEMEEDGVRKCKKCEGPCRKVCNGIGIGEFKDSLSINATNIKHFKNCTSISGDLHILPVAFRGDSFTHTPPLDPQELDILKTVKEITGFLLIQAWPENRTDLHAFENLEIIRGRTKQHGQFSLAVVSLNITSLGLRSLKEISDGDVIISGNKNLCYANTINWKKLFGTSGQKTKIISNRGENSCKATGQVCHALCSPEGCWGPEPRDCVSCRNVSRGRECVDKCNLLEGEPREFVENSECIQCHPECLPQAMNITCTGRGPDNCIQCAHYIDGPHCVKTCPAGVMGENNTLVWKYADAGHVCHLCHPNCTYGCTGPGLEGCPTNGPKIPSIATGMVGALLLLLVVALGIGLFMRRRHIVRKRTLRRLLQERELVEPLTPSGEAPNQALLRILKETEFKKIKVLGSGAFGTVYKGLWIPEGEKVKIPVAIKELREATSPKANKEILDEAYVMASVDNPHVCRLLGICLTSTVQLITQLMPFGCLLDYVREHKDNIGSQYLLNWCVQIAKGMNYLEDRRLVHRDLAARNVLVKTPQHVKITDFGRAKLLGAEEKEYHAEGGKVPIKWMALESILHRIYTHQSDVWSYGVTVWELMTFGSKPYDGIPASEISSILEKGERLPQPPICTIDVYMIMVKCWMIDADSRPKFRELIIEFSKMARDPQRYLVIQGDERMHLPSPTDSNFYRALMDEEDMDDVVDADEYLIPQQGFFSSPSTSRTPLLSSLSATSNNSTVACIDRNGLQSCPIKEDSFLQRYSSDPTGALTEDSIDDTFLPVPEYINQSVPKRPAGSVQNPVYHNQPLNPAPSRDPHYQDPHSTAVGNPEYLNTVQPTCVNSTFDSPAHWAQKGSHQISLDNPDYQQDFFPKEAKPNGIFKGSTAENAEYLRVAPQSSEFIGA
Chain of Tyrosine-protein kinase Srms (Homo sapiens) (Q9H3Y6 whole entry): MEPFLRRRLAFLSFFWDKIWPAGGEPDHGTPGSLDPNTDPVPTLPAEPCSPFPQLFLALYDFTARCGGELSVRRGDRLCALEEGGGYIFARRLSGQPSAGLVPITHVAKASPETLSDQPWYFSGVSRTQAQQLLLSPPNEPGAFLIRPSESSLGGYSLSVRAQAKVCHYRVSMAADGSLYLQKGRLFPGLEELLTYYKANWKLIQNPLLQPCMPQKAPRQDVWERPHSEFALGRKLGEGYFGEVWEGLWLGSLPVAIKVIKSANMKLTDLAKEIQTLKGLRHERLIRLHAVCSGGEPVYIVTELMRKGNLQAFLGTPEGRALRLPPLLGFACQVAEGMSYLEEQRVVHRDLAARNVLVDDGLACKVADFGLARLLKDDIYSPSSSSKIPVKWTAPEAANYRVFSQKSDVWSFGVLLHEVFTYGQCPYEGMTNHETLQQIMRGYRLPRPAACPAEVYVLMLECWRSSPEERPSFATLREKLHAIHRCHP
Chain of Dual specificity protein kinase TTK (Homo sapiens) (P33981 whole entry): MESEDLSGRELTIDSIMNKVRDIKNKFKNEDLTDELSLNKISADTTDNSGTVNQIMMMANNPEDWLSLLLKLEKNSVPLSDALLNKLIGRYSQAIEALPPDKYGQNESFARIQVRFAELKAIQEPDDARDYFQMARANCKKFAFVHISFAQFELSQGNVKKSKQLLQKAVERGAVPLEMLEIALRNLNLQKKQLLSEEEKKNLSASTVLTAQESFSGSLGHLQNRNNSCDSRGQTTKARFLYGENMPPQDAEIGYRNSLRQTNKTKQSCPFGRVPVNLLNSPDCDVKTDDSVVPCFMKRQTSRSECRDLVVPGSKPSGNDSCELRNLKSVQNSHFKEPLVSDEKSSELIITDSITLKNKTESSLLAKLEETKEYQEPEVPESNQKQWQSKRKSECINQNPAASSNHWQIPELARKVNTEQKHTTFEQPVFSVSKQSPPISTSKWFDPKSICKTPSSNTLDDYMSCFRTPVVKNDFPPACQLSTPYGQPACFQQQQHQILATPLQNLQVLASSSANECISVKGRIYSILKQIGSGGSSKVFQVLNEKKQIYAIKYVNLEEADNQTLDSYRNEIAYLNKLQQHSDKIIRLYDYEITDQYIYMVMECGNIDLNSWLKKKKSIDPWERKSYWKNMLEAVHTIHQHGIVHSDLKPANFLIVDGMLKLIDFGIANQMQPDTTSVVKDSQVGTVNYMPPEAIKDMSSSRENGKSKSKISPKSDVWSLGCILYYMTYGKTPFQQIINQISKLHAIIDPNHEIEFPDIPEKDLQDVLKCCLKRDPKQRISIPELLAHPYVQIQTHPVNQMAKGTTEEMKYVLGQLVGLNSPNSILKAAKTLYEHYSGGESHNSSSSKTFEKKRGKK
Chain of Vascular endothelial growth factor receptor 3 (Homo sapiens) (P35916 whole entry): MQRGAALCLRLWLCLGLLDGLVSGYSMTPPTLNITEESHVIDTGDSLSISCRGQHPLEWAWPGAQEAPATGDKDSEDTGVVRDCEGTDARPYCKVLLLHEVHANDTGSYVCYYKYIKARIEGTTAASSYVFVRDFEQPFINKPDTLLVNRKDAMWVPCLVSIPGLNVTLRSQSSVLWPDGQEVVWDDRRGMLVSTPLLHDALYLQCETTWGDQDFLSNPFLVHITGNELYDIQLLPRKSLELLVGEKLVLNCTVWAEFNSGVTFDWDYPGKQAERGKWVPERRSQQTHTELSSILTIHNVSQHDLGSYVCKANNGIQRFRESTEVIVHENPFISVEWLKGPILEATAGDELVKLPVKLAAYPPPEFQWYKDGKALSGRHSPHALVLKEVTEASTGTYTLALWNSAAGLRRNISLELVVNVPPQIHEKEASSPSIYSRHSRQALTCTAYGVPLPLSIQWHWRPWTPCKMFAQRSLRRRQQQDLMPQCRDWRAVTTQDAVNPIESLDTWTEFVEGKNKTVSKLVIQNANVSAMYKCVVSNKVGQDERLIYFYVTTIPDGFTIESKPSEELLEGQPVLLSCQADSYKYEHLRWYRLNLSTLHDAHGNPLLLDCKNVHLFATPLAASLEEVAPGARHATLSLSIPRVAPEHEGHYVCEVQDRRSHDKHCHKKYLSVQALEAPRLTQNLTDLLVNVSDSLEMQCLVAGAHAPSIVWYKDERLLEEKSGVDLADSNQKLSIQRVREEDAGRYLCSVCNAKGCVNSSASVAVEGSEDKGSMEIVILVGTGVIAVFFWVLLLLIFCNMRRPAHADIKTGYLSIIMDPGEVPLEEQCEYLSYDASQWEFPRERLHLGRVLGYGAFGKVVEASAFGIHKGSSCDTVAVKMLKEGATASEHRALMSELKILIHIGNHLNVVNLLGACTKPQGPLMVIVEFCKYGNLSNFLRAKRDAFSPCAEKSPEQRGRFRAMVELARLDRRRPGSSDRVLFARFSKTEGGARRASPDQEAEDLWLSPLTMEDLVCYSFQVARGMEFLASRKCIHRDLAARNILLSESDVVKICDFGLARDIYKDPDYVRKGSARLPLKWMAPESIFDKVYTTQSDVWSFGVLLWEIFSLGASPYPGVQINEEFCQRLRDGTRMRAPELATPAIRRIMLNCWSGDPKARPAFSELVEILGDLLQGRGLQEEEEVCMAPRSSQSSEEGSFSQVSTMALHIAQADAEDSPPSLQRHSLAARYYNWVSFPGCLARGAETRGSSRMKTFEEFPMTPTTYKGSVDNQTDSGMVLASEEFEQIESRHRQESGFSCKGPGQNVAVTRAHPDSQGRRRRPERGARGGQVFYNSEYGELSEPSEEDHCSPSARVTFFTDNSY
Chain of Serine/threonine-protein kinase 32B (Homo sapiens) (Q9NY57 whole entry): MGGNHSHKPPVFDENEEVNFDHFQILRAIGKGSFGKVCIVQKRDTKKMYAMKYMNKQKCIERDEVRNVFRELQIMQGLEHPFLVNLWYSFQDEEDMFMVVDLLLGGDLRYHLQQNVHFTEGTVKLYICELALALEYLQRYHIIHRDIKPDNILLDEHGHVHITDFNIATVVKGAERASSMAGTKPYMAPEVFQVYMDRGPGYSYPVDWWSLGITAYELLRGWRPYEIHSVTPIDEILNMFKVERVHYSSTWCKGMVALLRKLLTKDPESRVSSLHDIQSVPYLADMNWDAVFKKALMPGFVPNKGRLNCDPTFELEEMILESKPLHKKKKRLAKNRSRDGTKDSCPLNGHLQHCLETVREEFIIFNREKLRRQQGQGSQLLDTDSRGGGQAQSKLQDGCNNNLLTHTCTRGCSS

inhibition [1]: < 50%
inhibition [2]: 90%
inhibition [3]: 72%
inhibition [4]: 98%
inhibition [5]: 90%
clearance [6]: 22 mL/min/kg
inhibition [7]: 72%
fraction unbound [8]: 0.08
inhibition [9]: < 50%
inhibition [10]: 92%
half-life [11]: 2.4 h
inhibition [12]: 96%
inhibition [13]: 94%
inhibition [14]: 94%
half-life [15]: 0.8 h
inhibition [16]: 93%
inhibition [17]: 66%
clearance [18]: 13 mL/min/kg
inhibition [19]: 92%
AUC [20]: 1410 ng·h/mL
inhibition [21]: < 50%
inhibition [22]: 100%
concentration at 288 h [23]: 1180 ng/g
inhibition [24]: 89%
Compound: CCN1C(=O)CCCc2c1ccc(Nc1ncc(Cl)c(N[C@H]3[C@@H](C(N)=O)[C@@H]4C=C[C@H]3C4)n1)c2OC
Activity (KARPAS-299): Active
Activity (Mus musculus): Non-toxic
